This data set in a line: photoluminescence quantum yield (fraction); solvent given as SMILES.
[1] abbreviates: in c1ccc2c(c1)c1ccccc1n2-c1ccc(-c2ccc(-n3c4ccccc4c4ccccc43)cc2)cc1.

Compound `CCCN1c2ccccc2Sc2cc(/C=C\c3cc(=O)oc4cc(NC(=O)OCC)ccc34)ccc21` yielded a photoluminescence quantum yield (in ClC(Cl)Cl) of 0.62.
`O=c1cc2cc(O)c3cc(O)cc4ccc(o1)c2c43` showed a photoluminescence quantum yield (in CC1CCCO1) of 0.36.
On to `CC(C)[Si](C#Cc1c2cc3ccccc3cc2c(C#C[Si](C(C)C)(C(C)C)C(C)C)c2nc3c(ccc4ccccc43)nc12)(C(C)C)C(C)C`, for which the photoluminescence quantum yield (in CCCCCC) was 0.22.
The compound `CN(C)c1ccc(-c2ccc(-c3nc(C#N)c(C#N)n3C)cc2)cc1` displayed a photoluminescence quantum yield (in C1CCCCC1) of 0.98, a photoluminescence quantum yield (in CC#N) of 0.013, a photoluminescence quantum yield (in CO) of 0.011 and a photoluminescence quantum yield (in ClC(Cl)Cl) of 0.73.
Take `CN(C)c1ccc(C2=Cc3cccc[n+]3[B-](F)(F)O2)cc1`: the photoluminescence quantum yield by setting is: (in C1CCOC1) 0.684; (in C1COCCO1) 0.794; (in CC1CCCCC1) 0.519; (in CC#N) 0.517; (in CCOC(C)=O) 0.699; (in CCOCC) 0.868. The same compound registered a photoluminescence quantum yield (in CN(C)C=O) of 0.382, a photoluminescence quantum yield (in CO) of 0.454, a photoluminescence quantum yield (in COC(C)=O) of 0.569 and a photoluminescence quantum yield (in ClC(Cl)Cl) of 0.705.
Turning to `Cc1ccccc1-c1c2cccc3c(-c4ccc(C(C)(C)C)cc4)cc4c(-c5ccccc5C)c5cccc6c(-c7ccc(C(C)(C)C)cc7)cc1c(c65)c4c32`, the photoluminescence quantum yield (in ClCCl) amounted to 0.28.
In the case of `CCCCCCN1C(=O)c2cc(-c3ccc(-n4c5ccccc5c5ccccc54)cc3)c(-c3ccc(-n4c5ccccc5c5ccccc54)cc3)cc2C1=O`, the photoluminescence quantum yield reads like this: (in ClC(Cl)Cl) 0.78; under setting [1], 0.7.
As to `CCC1=C(C)C2=C(C)c3cc(I)c(I)n3[B-](F)(F)[N+]2=C1C`, the photoluminescence quantum yield runs as follows: (in C1CCCCC1) 0.2; (in CC(C)=O) 0.13; (in CCO) 0.16; (in CCOC(C)=O) 0.15; (in CO) 0.13; (in OCC(F)(F)F) 0.11.
For `CC(=O)c1c(N[C@@H](Cc2ccc(O)cc2)C(=O)O)c2ccc(N(C)C)cc2oc1=O`, for the setting “in ClCCl”, the photoluminescence quantum yield is 0.005.
Consider `CCCc1cc2c(s1)-c1cc3c(cc1NB2c1ccccc1)-c1sc(CCC)cc1B(c1ccccc1)N3`, for which the photoluminescence quantum yield (in ClCCl) was found to be 0.19.
Take `COc1ccc(-c2n[n+]3c(s2)N=C(c2ccccc2)O[B-]3(F)F)cc1`: the photoluminescence quantum yield (in Cc1ccccc1) was found to be 0.16.
Turning to `CCN(CC)c1ccc2cc(C#N)/c(=N\C(=O)C(C)C)oc2c1`, the photoluminescence quantum yield runs as follows: (in CCO) 0.047; (in ClCCl) 0.83.
As for `CCCCCCc1cc(B(c2c(C)cc(C)cc2C)c2c(C)cc(C)cc2C)c(-c2sc(CCCCCC)cc2P(=O)(c2ccccc2)c2ccccc2)s1`, the photoluminescence quantum yield (in CO) amounted to 0.17.
Compound `CCOC(=O)c1c2c3c(ccc(C)c3c3cc4c(cc13)[Si](C)(C)O[Si]4(C)C)N(C)C2=O` came in with a photoluminescence quantum yield (in CC#N) of 0.4.
As for `CC1=CC(C)=[N+]2C1=C(c1c3ccccc3c(-c3ccccc3)c3ccccc13)c1c(C)cc(C)n1[B-]2(F)F`, the photoluminescence quantum yield turned out to be 0.007 (in CC#N); 0.9 (in CCCCCC); 0.02 (in CCO); 0.01 (in CN(C)C=O); 0.79 (in Cc1ccccc1); 0.024 (in ClCCl).
On to `O=C(O)COc1cccc(OCC(=O)O)c1-c1c2ccc(=[N+]3CCCCC3)cc-2oc2cc(N3CCCCC3)ccc12`, for which the photoluminescence quantum yield (in CCO) turned out to be 0.49 and the photoluminescence quantum yield (in O) amounted to 0.13.
On to `CC1=C2C=CC(c3ccccc3)=[N+]2[B-](F)(F)n2c1ccc2-c1ccccc1`, for which the photoluminescence quantum yield (in ClCCl) came out at 0.64.
`CC1(C)c2ccccc2N(c2ccc3c(c2)C2(c4cc(N5c6ccccc6C(C)(C)c6ccccc65)ccc4-3)c3ccccc3S(=O)(=O)c3ccccc32)c2ccccc21` yielded a photoluminescence quantum yield (in c1ccc2c(c1)c1ccccc1n2-c1ccc(N(c2ccc(-n3c4ccccc4c4ccccc43)cc2)c2ccc(-n3c4ccccc4c4ccccc43)cc2)cc1) of 0.41.
As for `O=S(=O)(c1ccc(-c2ccc(-c3nc4c5ccccc5c5ccccc5c4n3-c3ccccc3)cc2)cc1)c1ccc(-c2ccc(-c3nc4c5ccccc5c5ccccc5c4n3-c3ccccc3)cc2)cc1`, the photoluminescence quantum yield reads like this: (in C1CCOC1) 0.847; (in CC#N) 0.579; (in CC(C)=O) 0.779; (in CC(C)OC(C)C) 0.81; (in CCCCCC) 0.676; (in CCCCOCCCC) 0.85. Further, the photoluminescence quantum yield came to 0.102 (in CCN(CC)CC); 0.89 (in CCOC(C)=O); 0.992 (in CCOCC); 0.775 (in CN(C)C=O); 1 (in ClC(Cl)Cl); 0.824 (in ClCCl). Besides, under setting [1], the photoluminescence quantum yield came to 0.72.
For `C#Cc1ccc2cc(/C=C/C(=O)OCC)c(=O)oc2c1`, the photoluminescence quantum yield (in CCO) came out at 0.36.
The compound `CC1=C(C#Cc2ccc(B(c3c(C)cc(C)cc3C)c3c(C)cc(C)cc3C)cc2)C(C)=[N+]2C1=C(c1ccccc1)c1c(C)c(C#Cc3ccc(B(c4c(C)cc(C)cc4C)c4c(C)cc(C)cc4C)cc3)c(C)n1[B-]2(F)F` yielded a photoluminescence quantum yield (in ClCCl) of 0.65.
The compound `Cc1cc(=O)c2c(ccc3ccc(O)cc32)o1` registered a photoluminescence quantum yield (in CC#N) of 0.02.
For `CCCCCCCCOc1ccc(-c2c3c4n(c(-c5ccc(OCCCCCCCC)cc5)c3c3n2[B-](F)(F)[n+]2c(ccc5ccccc52)N=3)[B-](F)(F)[n+]2c(ccc3ccccc32)N=4)cc1`, the photoluminescence quantum yield (in ClC(Cl)Cl) worked out at 0.83.
The compound `COc1ccc(C2=[N+]3C(=Nc4c(-c5ccccc5-c5ccc(C(C)(C)C)cc5)cc(-c5ccc(OC)cc5)n4[B-]3(F)F)c3c2c2cc(C(C)(C)C)ccc2c2ccccc32)cc1` had a photoluminescence quantum yield (in Cc1ccccc1) of 0.38.
With `Cc1cc2ccccc2c2c1c1ccccc1n2-c1ccc(C#N)cc1`, the photoluminescence quantum yield (in ClCCl) stood at 0.04.
Regarding `CN(C)c1ccc2cc(C3=[O+][B-](F)(F)OC(c4ccccc4)=C3)ccc2c1`, the photoluminescence quantum yield (in C1CCOC1) is 0.1; the photoluminescence quantum yield (in CC#N) turned out to be 0.007; the photoluminescence quantum yield (in CC(C)=O) was found to be 0.01; the photoluminescence quantum yield (in CS(C)=O) is 0.005; the photoluminescence quantum yield (in Cc1ccccc1) came out at 0.97; the photoluminescence quantum yield (in ClC(Cl)Cl) came out at 0.9. This compound also yielded a photoluminescence quantum yield (in ClCCl) of 0.13.
Turning to `CCN(CC)c1ccc(-c2nc3c4ccccc4n(C)c3nc2-c2ccc(B(c3c(C)cc(C)cc3C)c3c(C)cc(C)cc3C)cc2)cc1`, the photoluminescence quantum yield (in C1CCOC1) was found to be 0.27.
In turn, `Cc1cccc(C)c1/C=C/c1nc(N2CCOCC2)c2c([n+]1[O-])CCCC2` had a photoluminescence quantum yield (in ClCCl) of 0.29.
As to `Cc1cc(=O)oc2c3c4c(cc12)CCCN4CCC3`, the photoluminescence quantum yield turned out to be 0.9 (in CCC#N); 0.8 (in CCCCl); 0.8 (in CCO); 0.86 (in OC(C(F)(F)F)C(F)(F)F); 0.84 (in OCC(F)(F)F).
As for `O=C(O)CCCOc1cc2ccc3cccc4ccc(c1)c2c34`, the photoluminescence quantum yield (in CO) is 0.77.
Under “in C1CCOC1”, `COc1cc2c(cc1-c1ccc(F)cc1)Cc1c3c(c4c(c1-2)-c1cc(OC)c(-c2ccc(F)cc2)cc1C4)C(=O)N(CCC(C)C)C3=O` returned a photoluminescence quantum yield of 0.52.
As for `CCN1c2ccc(/C=N/Nc3ccccn3)cc2Sc2cc(-c3ccc(C#N)cc3)ccc21`, the photoluminescence quantum yield is, setting by setting: (in C1CCOC1) 0.23; (in CS(C)=O) 0.23; (in Cc1ccccc1) 0.33; (in ClCCl) 0.36.
As for `CCCCCCN1C(=O)c2cccc3c(-c4ccc(-c5cc(-c6ccc(C)cc6)nn5-c5ccccc5)s4)ccc(c23)C1=O`, under “in ClCCl”, the photoluminescence quantum yield is 0.18.
The compound `c1ccc(-c2ccc(-c3cc(-c4ccc(-c5ccccc5)cc4)cc(-c4ccc(-c5ccccc5)cc4)c3)cc2)cc1` displayed a photoluminescence quantum yield (in C1COCCO1) of 0.27.
Turning to `CCCCCCCCC1(CCCCCCCC)c2cc(-c3ccc(C(F)(F)F)cc3)ccc2-c2ccc(N(c3ccc(-n4c5ccccc5c5ccccc54)cc3)c3ccc4c(c3)C(CCCCCCCC)(CCCCCCCC)c3cc(-c5ccc(C(F)(F)F)cc5)ccc3-4)cc21`, the photoluminescence quantum yield was determined as 0.61 (in C1CCOC1); 0.71 (in C1COCCO1); 0.46 (in CC#N); 0.51 (in CC(C)=O); 0.6 (in CCCCCC); 0.67 (in CCCCOCCCC). The photoluminescence quantum yield reads like this: (in CCN(CC)CC) 0.52; (in CCOC(C)=O) 0.54; (in CCOCC) 0.76; (in CN(C)C=O) 0.52; (in CS(C)=O) 0.47; (in Cc1ccccc1) 0.67. Besides, the photoluminescence quantum yield by setting is: (in ClC(Cl)Cl) 0.47; (in ClCCl) 0.57; (in c1ccccc1) 0.63.
Compound `Cc1cccn2c1cc1c3ccccc3nc(-c3ccco3)c12` returned a photoluminescence quantum yield (in CS(C)=O) of 0.42.
For the setting “in C1CCOC1”, `c1cc2c3c4c5c(cccc5cc3c1)-c1cccn1B4n1cccc1-2` returned a photoluminescence quantum yield of 0.07.
Regarding `CCc1c(C)c2n(c1C)[B-](F)(F)[N+]1=C(NCc3ccc(OC)cc3)C(SC#N)=CC1=C2C`, the photoluminescence quantum yield came out at 0.83 (in CC#N); 0.91 (in CCCCCC); 0.9 (in CCOC(C)=O); 0.85 (in CO); 0.93 (in ClCCl).
With `Cc1ccc(C2=[N+]3C(=Cc4c(C)cc(C)n4[B-]3(F)F)c3ccccc32)[nH]1`, the photoluminescence quantum yield worked out at 0.82 (in C1CCOC1); 0.84 (in CC#N); 0.91 (in CCCCCC); 0.83 (in CO); 0.83 (in Cc1ccccc1); 0.89 (in ClCCl).
